pEC50: −log10 of the molar value.
Target: T1, human IL-17AA (Homo sapiens, UniProt Q16552)
T1 construct: host or cells: HEK (human embryonic kidney) cells
T1 sequence (Q16552 24-155): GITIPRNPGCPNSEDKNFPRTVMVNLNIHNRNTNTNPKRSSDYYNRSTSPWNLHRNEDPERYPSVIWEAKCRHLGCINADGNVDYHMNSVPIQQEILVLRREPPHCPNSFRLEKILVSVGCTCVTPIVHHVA
Assay: IL-8 release assay in human epithelial keratinocytes adult (HEKa)
Type: cell-based
Details: HEKa cells, 3 ng/mL HEK-human IL-17AA + 10 ng/mL human TNFalpha; read-out: Rel EC50 IL-8 release assay
In short: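 Adult human epidermal keratinocytes stimulated 68-72 h at 37 °C with 3 ng/mL HEK-derived human IL-17AA plus 10 ng/mL TNF-alpha (final) in the presence of compound; TNF-alpha alone defines 100% inhibition. Secreted IL-8 measured by HTRF as percent of controls; relative IC50/Emax from four-parameter fit (r^2>0.9), cytotoxicity by PrestoBlue.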

pEC50 | SMILES
> 7.00 | Cc1n[nH]c(C)c1-c1ccc(NC(=O)[C@@H](NC(=O)c2ccnn2C)[C@H]2CCc3ccccc32)cc1 [Example 79, N-[(1S)-2-[4-(3,5-dimethyl-1H-pyrazol-4-yl)anilino]-1-[(1S)-indan-1-yl]-2-oxo-ethyl]-2-methyl-pyrazole-3-carboxamide]
6.00 to 7.00 | Cc1n[nH]c(C)c1-c1ccc(NC(=O)[C@@H](NC(=O)c2ccnn2C)[C@H]2CCc3ccc(C#N)cc32)cc1 [Example 80, N-[(1S)-1-[(1S)-6-cyanoindan-1-yl]-2-[4-(3,5-dimethyl-1H-pyrazol-4-yl)anilino]-2-oxo-ethyl]-2-methyl-pyrazole-3-carboxamide]
> 7.00 | Cc1n[nH]c(C)c1-c1ccc(NC(=O)[C@@H](NC(=O)c2ccnn2C)[C@H]2CCCc3ccccc32)cc1 [Example 81, N-[(1S)-2-[4-(3,5-dimethyl-1H-pyrazol-4-yl)anilino]-2-oxo-1-[(1S)-tetralin-1-yl]ethyl]-2-methyl-pyrazole-3-carboxamide]
6.00 to 7.00 | Cc1n[nH]c(C)c1-c1ccc(NC(=O)[C@@H](NC(=O)c2ccnn2C)[C@H]2CCCc3ccc(C#N)cc32)cc1 [Example 82, N-[(1S)-1-[(1S)-7-cyanotetralin-1-yl]-2-[4-(3,5-dimethyl-1H-pyrazol-4-yl)anilino]-2-oxo-ethyl]-2-methyl-pyrazole-3-carboxamide]
6.00 to 7.00 | Cc1ncn(C)c1-c1ccc(NC(=O)[C@@H](NC(=O)OC(C)(C)C)C2CCCCC2)cc1 [Example 83, tert-butyl N-[(1S)-1-cyclohexyl-2-[4-(3,5-dimethylimidazol-4-yl)anilino]-2-oxo-ethyl]carbamate]
6.00 to 7.00 | Cc1ncn(C)c1-c1ccc(NC(=O)C(NC(=O)OC(C)(C)C)C(C2CC2)C2CC2)cc1 (stereo not drawn) [Example 84, tert-butyl N-[1-(dicyclopropylmethyl)-2-[4-(3,5-dimethylimidazol-4-yl)anilino]-2-oxo-ethyl]carbamate]
< 6.00 | Cc1ncn(C)c1-c1ccc(NC(=O)[C@@H](NC(=O)OC(C)(C)C)C2CCCC2)cc1 [Example 87, tert-butyl N-[(1S)-1-cyclopentyl-2-[4-(3,5-dimethylimidazol-4-yl)anilino]-2-oxo-ethyl]carbamate]
6.00 to 7.00 | Cc1ncn(C)c1-c1ccc(NC(=O)[C@@H](NC(=O)OC(C)(C)C)C2CCCCCC2)cc1 [Example 88, tert-butyl N-[(1S)-1-cycloheptyl-2-[4-(3,5-dimethylimidazol-4-yl)anilino]-2-oxo-ethyl]carbamate]
< 6.00 | CCC(CC)[C@H](NC(=O)OC(C)(C)C)C(=O)Nc1ccc(-c2c(C)ncn2C)cc1 [Example 89, tert-butyl N-[(1S)-1-[[4-(3,5-dimethylimidazol-4-yl)phenyl]carbamoyl]-2-ethyl-butyl]carbamate]
< 6.00 | CC(C)[C@H](NC(=O)OC(C)(C)C)C(=O)Nc1ccc(-c2cncn2C)cc1 [Example 91, tert-butyl N-[(1S)-2-methyl-1-[[4-(3-methylimidazol-4-yl)phenyl]carbamoyl]propyl] carbamate]
< 6.00 | Cn1cncc1-c1ccc(NC(=O)[C@@H](NC(=O)OC(C)(C)C)C2CCC2)cc1 [Example 92, tert-butyl N-[(1S)-1-cyclobutyl-2-[4-(3-methylimidazol-4-yl)anilino]-2-oxo-ethyl]carbamate]
< 6.00 | Cn1cncc1-c1ccc(NC(=O)[C@H](CC2CCCCC2)NC(=O)OC(C)(C)C)cc1 [Example 93, tert-butyl N-[(1S)-1-(cyclohexylmethyl)-2-[4-(3-methylimidazol-4-yl)anilino]-2-oxo-ethyl]carbamate]
< 6.00 | CCC(C)[C@H](NC(=O)OC(C)(C)C)C(=O)Nc1ccc(-c2cncn2C)cc1 (stereo partly drawn) [Example 94, tert-butyl N-[(1S)-2-methyl-1-[[4-(3-methylimidazol-4-yl)phenyl]carbamoyl]butyl] carbamate]
< 6.00 | Cn1cncc1-c1ccc(NC(=O)[C@H](Cc2ccccc2)NC(=O)OC(C)(C)C)cc1 [Example 95, tert-butyl N-[(1S)-1-benzyl-2-[4-(3-methylimidazol-4-yl)anilino]-2-oxo-ethyl]carbamate]
< 6.00 | CC(C)C[C@H](NC(=O)OC(C)(C)C)C(=O)Nc1ccc(-c2cncn2C)cc1 [Example 96, tert-butyl N-[(1S)-3-methyl-1-[[4-(3-methylimidazol-4-yl)phenyl]carbamoyl]butyl] carbamate]
< 6.00 | Cn1cncc1-c1ccc(NC(=O)[C@H](Cc2ccccc2Cl)NC(=O)OC(C)(C)C)cc1 [Example 97, tert-butyl N-[(1S)-1-[(2-chlorophenyl)methyl]-2-[4-(3-methylimidazol-4-yl)anilino]-2-oxo-ethyl]carbamate]
< 6.00 | Cn1cncc1-c1ccc(NC(=O)[C@@H](NC(=O)OC(C)(C)C)C2CCCC2)cc1 [Example 98, tert-butyl N-[(1S)-1-cyclopentyl-2-[4-(3-methylimidazol-4-yl)anilino]-2-oxo-ethyl]carbamate]

pEC50 | SMILES
< 6.00 | Cn1cncc1-c1ccc(NC(=O)[C@@H](NC(=O)OC(C)(C)C)C2Cc3ccccc3C2)cc1 [Example 99, tert-butyl N-[(1S)-1-indan-2-yl-2-[4-(3-methylimidazol-4-yl)anilino]-2-oxo-ethyl]carbamate]
< 6.00 | Cn1cncc1-c1ccc(NC(=O)[C@@H](NC(=O)OC(C)(C)C)C2CCCCC2)cc1 [Example 100, tert-butyl N-[(1S)-1-cyclohexyl-2-[4-(3-methylimidazol-4-yl)anilino]-2-oxo-ethyl]carbamate]
< 6.00 | Cn1cncc1-c1ccc(NC(=O)[C@@H](NC(=O)OC(C)(C)C)C(c2ccccc2)c2ccccc2)cc1 [Example 101, tert-butyl N-[(1S)-1-benzhydryl-2-[4-(3-methylimidazol-4-yl)anilino]-2-oxo-ethyl]carbamate]
> 7.00 | Cc1n[nH]c(C)c1-c1ccc(NC(=O)[C@@H](NC(=O)c2ccnn2CCCO)C(C2CC2)C2CC2)cc1 [Example 102, N-[(1S)-1-(dicyclopropylmethyl)-2-[4-(3,5-dimethyl-1H-pyrazol-4-yl)anilino]-2-oxo-ethyl]-2-(3-hydroxypropyl)pyrazole-3-carboxamide]
< 6.00 | Cc1n[nH]c(C)c1-c1ccc(NC(=O)[C@H](NC(=O)c2ccnn2C)C2CCCCC2)cc1 [Example 103, N-[(1R)-1-cyclohexyl-2-[4-(3,5-dimethyl-1H-pyrazol-4-yl)anilino]-2-oxo-ethyl]-2-methyl-pyrazole-3-carboxamide]
> 7.00 | Cc1n[nH]c(C)c1-c1ccc(NC(=O)[C@@H](NC(=O)c2ccnn2CC(F)F)C2CCCCC2)cc1 [Example 106, N-[(1S)-1-cyclohexyl-2-[4-(3,5-dimethyl-1H-pyrazol-4-yl)anilino]-2-oxo-ethyl]-2-(2,2-difluoroethyl)pyrazole-3-carboxamide]
> 7.00 | CCn1nccc1C(=O)N[C@H](C(=O)Nc1ccc(-c2c(C)n[nH]c2C)cc1)C(C1CC1)C1CC1 [Example 107, N-[(1S)-1-(dicyclopropylmethyl)-2-[4-(3,5-dimethyl-1H-pyrazol-4-yl)anilino]-2-oxo-ethyl]-2-ethyl-pyrazole-3-carboxamide]
> 7.00 | Cc1n[nH]c(C)c1-c1ccc(NC(=O)[C@@H](NC(=O)c2ccnn2C2CCC2)C2CCCCC2)cc1 [Example 108, 2-cyclobutyl-N-[(1S)-1-cyclohexyl-2-[4-(3,5-dimethyl-1H-pyrazol-4-yl)anilino]-2-oxo-ethyl]pyrazole-3-carboxamide]
6.00 to 7.00 | CC[C@H](C)[C@H](NC(=O)c1ccnn1CC)C(=O)Nc1ccc(-c2c(C)n[nH]c2C)cc1 [Example 109, N-[(1S,25)-1-[[4-(3,5-dimethyl-1H-pyrazol-4-yl)phenyl]carbamoyl]-2-methyl-butyl]-2-ethyl-pyrazole-3-carboxamide]
6.00 to 7.00 | CC[C@H](C)[C@H](NC(=O)c1ccnn1C(C)C)C(=O)Nc1ccc(-c2c(C)n[nH]c2C)cc1 [Example 110]
< 6.00 | Cc1n[nH]c(C)c1-c1ccc(NC(=O)[C@H](NC(=O)c2ccnn2C(C)C)C2CCC3(CC2)CC3)cc1 [Example 111, N-[(1R)-2-[4-(3,5-dimethyl-1H-pyrazol-4-yl)anilino]-2-oxo-1-spiro[2.5]octan-6-yl-ethyl]-2-isopropyl-pyrazole-3-carboxamide]
> 7.00 | Cc1n[nH]c(C)c1-c1ccc(NC(=O)[C@@H](NC(=O)c2ccnn2C(C)C)C2CCC3(CC2)CC3)cc1 [Example 112, N-[(1S)-2-[4-(3,5-dimethyl-1H-pyrazol-4-yl)anilino]-2-oxo-1-spiro[2.5]octan-6-yl-ethyl]-2-isopropyl-pyrazole-3-carboxamide]
< 6.00 | CC[C@@H](C)[C@H](NC(=O)c1ccnn1C)C(=O)Nc1ccc(-c2c(C)n[nH]c2C)cc1 [Example 113]
> 7.00 | Cc1n[nH]c(C)c1-c1ccc(NC(=O)[C@@H](NC(=O)c2ccnn2C2CCC2)C(C2CC2)C2CC2)cc1 [Example 114, 2-cyclobutyl-N-[(1S)-1-(dicyclopropylmethyl)-2-[4-(3,5-dimethyl-1H-pyrazol-4-yl)anilino]-2-oxo-ethyl]pyrazole-3-carboxamide]
> 7.00 | Cc1n[nH]c(C)c1-c1ccc(NC(=O)[C@@H](NC(=O)c2ccnn2CC(F)F)C(C2CC2)C2CC2)cc1 [Example 115, N-[(1S)-1-(dicyclopropylmethyl)-2-[4-(3,5-dimethyl-1H-pyrazol-4-yl)anilino]-2-oxo-ethyl]-2-(2,2-difluoroethyl)pyrazole-3-carboxamide]
> 7.00 | Cc1n[nH]c(C)c1-c1ccc(NC(=O)[C@@H](NC(=O)c2ccnn2C2CC2)C(C2CC2)C2CC2)cc1 [Example 116, 2-cyclopropyl-N-[(1S)-1-(dicyclopropylmethyl)-2-[4-(3,5-dimethyl-1H-pyrazol-4-yl)anilino]-2-oxo-ethyl]pyrazole-3-carboxamide]
